Data: paper PMC3992131 (Nature chemical biology, 2014)
Like-named read-outs stand apart in the source and are kept apart here. One block for each molecule: values may come before it. Where a SMILES comes first, the peptide text is derived from it. Bridges are numbered along the chain shown (N, C = ends). Where no end group is shown, it is not given here.

Key:
FhuA = settings: cited from earlier work
human erythrocytes = settings: cited from earlier work
E. coli FhuA = target: T1, E. coli FhuA (Escherichia coli, UniProt P06971); test: biochemical; format: binding, Escherichia coli MG1655
T1 sequence (P06971 34-747): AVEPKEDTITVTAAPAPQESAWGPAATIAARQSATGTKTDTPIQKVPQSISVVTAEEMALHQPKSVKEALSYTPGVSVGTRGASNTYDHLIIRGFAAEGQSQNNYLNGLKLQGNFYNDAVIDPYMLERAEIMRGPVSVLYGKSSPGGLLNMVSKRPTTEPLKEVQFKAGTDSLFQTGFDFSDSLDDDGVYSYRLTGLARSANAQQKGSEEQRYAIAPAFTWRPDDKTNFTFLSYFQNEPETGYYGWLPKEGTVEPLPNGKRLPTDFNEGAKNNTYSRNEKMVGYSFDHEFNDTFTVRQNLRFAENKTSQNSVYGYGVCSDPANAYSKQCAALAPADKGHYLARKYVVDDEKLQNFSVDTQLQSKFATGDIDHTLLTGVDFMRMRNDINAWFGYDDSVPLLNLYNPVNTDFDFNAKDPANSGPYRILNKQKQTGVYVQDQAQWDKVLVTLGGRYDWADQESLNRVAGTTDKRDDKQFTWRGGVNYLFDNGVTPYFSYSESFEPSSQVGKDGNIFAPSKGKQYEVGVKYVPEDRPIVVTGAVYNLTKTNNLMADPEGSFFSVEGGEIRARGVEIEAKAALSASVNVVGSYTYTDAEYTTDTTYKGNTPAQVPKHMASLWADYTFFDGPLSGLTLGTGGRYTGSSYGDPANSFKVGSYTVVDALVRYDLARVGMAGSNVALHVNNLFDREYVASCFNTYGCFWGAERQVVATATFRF

Salmonella = settings: mouse model of infection by Salmonella; cited from earlier work
[1] = complex fluid matrices; cited from earlier work
[2] = tested on: E. coli W3110 wildtype and tonB− strains; test: tonB antibacterial assay; format: cell-based; settings: spot-on-lawn, 10 μL MccJ25 in MeOH (1-100 μg/mL), LB agar, 37°C overnight
[3] = tested on: Escherichia and Salmonella species; settings: cited from earlier work
E. coli RNA polymerase = settings: in vitro; cited from earlier work
FhuA (Escherichia coli) = FhuA (Escherichia coli) (UniProt P06971); test: ITC; settings: cited from earlier work
[4] = target: FhuA from E. coli MG1655 with an internal His-tag (E. coli) (UniProt P06971); test: native MS

Molecule: CO[C@H]1/C=C/O[C@@]2(C)Oc3c(C)c(O)c4c(c3C2=O)C(=O)C(N2CCOCC2)=C(NC(=O)/C(C)=C\C=C\[C@H](C)[C@H](O)[C@@H](C)[C@@H](O)[C@@H](C)[C@H](OC(=O)CC(=O)OCC2CCCN(C)C2)[C@@H]1C)C4=O (stereo partly shown) [CGP 4832]
transport by FhuA (FhuA): can transport

Kd (E. coli FhuA): 980 ± 20 nM
Molecule: CC[C@H](C)[C@H](NC(=O)CNC(=O)[C@@H](NC(=O)[C@H](Cc1ccccc1)NC(=O)[C@H](Cc1ccc(O)cc1)NC(=O)[C@@H]1CCC(=O)NCC(=O)NCC(=O)N[C@@H](C)C(=O)NCC(=O)N[C@@H](Cc2cnc[nH]2)C(=O)N[C@@H](C(C)C)C(=O)N2CCC[C@H]2C(=O)N1)C(C)C)C(=O)NCC(=O)N[C@H](C(=O)N1CCC[C@H]1C(=O)N[C@H](C(=O)N[C@@H](CO)C(=O)N[C@@H](Cc1ccccc1)C(=O)N[C@@H](Cc1ccc(O)cc1)C(=O)NCC(=O)O)[C@@H](C)CC)[C@@H](C)O [MccJ25, microcin J25] (GGAGHVPEYFVGIGTPISFYG-OH; lactam N-8)
haemolytic activity (human erythrocytes): without haemolytic activity on human erythrocytes

Molecule: CC[C@H](C)[C@H](NC(=O)CNC(=O)[C@@H](NC(=O)[C@H](Cc1ccccc1)NC(=O)[C@H](Cc1ccc(O)cc1)NC(=O)[C@@H]1CCC(=O)NCC(=O)NCC(=O)N[C@@H](C)C(=O)NCC(=O)N[C@@H](Cc2c[nH]cn2)C(=O)N[C@@H](C(C)C)C(=O)N2CCC[C@H]2C(=O)N1)C(C)C)C(=O)NCC(=O)N[C@H](C(=O)N1CCC[C@H]1C(=O)N[C@H](C(=O)N[C@@H](CO)C(=O)N[C@@H](Cc1ccccc1)C(=O)N[C@@H](Cc1ccc(O)cc1)C(=O)NCC(=O)O)[C@@H](C)CC)[C@@H](C)O [MccJ25, microcin J25] (GGAGHVPEYFVGIGTPISFYG-OH; lactam N-8; C-terminus assumed)
antibacterial activity in vivo (Salmonella): in vivo in a mouse model of infection by Salmonella | antibacterial activity ex vivo [1]: has been demonstrated both ex vivo, in complex fluid matrices | internalization dependence on TonB [2]: dependent on the FhuA-TonB system | antibacterial activity/spectrum [3]: potent antibacterial activity exclusively against Escherichia and some Salmonella species | antibacterial activity/spectrum ([3]; through inhibition of RNA polymerase): potent, narrow spectrum antibacterial activity against Escherichia and Salmonella species | inhibition of E. coli RNA polymerase (E. coli RNA polymerase): inhibit E. coli RNA polymerase with equal efficiency in vitro

Molecule: CO[C@H]1/C=C/O[C@@]2(C)Oc3c(C)c(O)c4c(O)c(cc(O)c4c3C2=O)NC(=O)/C(C)=C\C=C\[C@H](C)[C@H](O)[C@@H](C)[C@@H](O)[C@@H](C)[C@H](OC(C)=O)[C@@H]1C [rifamycin]
transport by FhuA (FhuA): cannot efficiently transport

Molecule: MccJ25 (from UniProt Q9X2V7)
Kd (FhuA (Escherichia coli)): 1200 nM

Kd [4]: 16900 nM
Molecule: MccJ25[His5Lys] (peptide)

binding to FhuA (result in words) (E. coli FhuA): absence of binding to FhuA
Molecule: t-MccJ25: MccJ25 hydrolyzed between Phe10 and Val11, obtained by incubation of MccJ25 in the presence of thermolysin (chain 1 GGAGHVPEYF; chain 2 VGIGTPISFYG; also: lactam at chain A 8 to a chain's N-terminus)
